Measurements published in PubChem BioAssay (NCI).
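48-hour exposure; five concentrations; linearly interpolated endpoints. The concentration for 50% growth inhibition is given as GI50. TGI is the concentration that stops growth completely.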

Assays:
Assay in all cases: NCI tumour cell line growth inhibition, 48 h
ACHN renal = tested on: ACHN renal
EKVX NSCLC = tested on: EKVX NSCLC
HCT-116 colon = tested on: HCT-116 colon
IGROV1 ovarian = tested on: IGROV1 ovarian
K-562 leukemia = tested on: K-562 leukemia
MALME-3M melanoma = tested on: MALME-3M melanoma
MCF7 breast = tested on: MCF7 breast
OVCAR-5 ovarian = tested on: OVCAR-5 ovarian
OVCAR-8 ovarian = tested on: OVCAR-8 ovarian
PC-3 prostate = tested on: PC-3 prostate

Compound | GI50 (ACHN renal) [µM] | TGI (ACHN renal) [µM] | GI50 (EKVX NSCLC) [µM] | TGI (EKVX NSCLC) [µM] | GI50 (HCT-116 colon) [µM] | TGI (HCT-116 colon) [µM] | GI50 (IGROV1 ovarian) [µM] | TGI (IGROV1 ovarian) [µM] | GI50 (K-562 leukemia) [µM] | TGI (K-562 leukemia) [µM] | GI50 (MALME-3M melanoma) [µM] | TGI (MALME-3M melanoma) [µM] | GI50 (MCF7 breast) [µM] | TGI (MCF7 breast) [µM] | GI50 (OVCAR-5 ovarian) [µM] | TGI (OVCAR-5 ovarian) [µM] | GI50 (OVCAR-8 ovarian) [µM] | TGI (OVCAR-8 ovarian) [µM] | GI50 (PC-3 prostate) [µM] | TGI (PC-3 prostate) [µM]
O=[N+]([O-])c1ccc2ncccc2c1Cl | 4.69 | 22.3 | 12.3 | 29.2 | 1.57 | 7.23 | 3.89 | 13.8 | 0.382 | 27.1 | 15.2 | 54.4 | 3.55 | 12.9 | 3.44 | > 100 | 2.96 | 8.69 | 3.75 | 20.2
COc1ccc(-c2csc(-c3cc(Cl)cc(Cl)c3Cl)n2)cc1 | > 100 | > 100 | 59.9 | > 100 | > 100 | > 100 | 56.8 | > 100 | 46 | > 100 | 81.1 | > 100 | 5.91 | > 100 | > 100 | > 100 | 48.4 | > 100 | 52.2 | > 100
C=C(C)[C@@H]1CC[C@]2(COC3CCCCO3)CC[C@]3(C)[C@H](CC[C@@H]4[C@@]5(C)C=C(C=O)C(=O)C(C)(C)[C@@H]5CC[C@]43C)[C@@H]12 (some centres not stated) | 1.26 | 2.52 | 1.62 | 3.32 | 1.31 | 2.59 | 2.13 | 4.56 | 1.64 | 5.98 | 1.66 | 3.45 | 1.52 | 3.43 | 1.79 | 4.21 | 1.49 | 3.86 | 1.1 | 2.71
CCc1nc(Cl)nc(Cl)c1Cl | – | 1.5 | – | 38.7 | – | 4.62 | – | 13.7 | – | 3.62 | – | 1.57 | – | 5.56 | – | 9.81 | – | 5.34 | – | 6.25
O=C(O)C1(Cc2cccc(Nc3nccs3)n2)CCC(Oc2cccc(Cl)c2F)CC1 (configuration not stated) | 14.4 | > 100 | 13.6 | 47.4 | 0.64 | 30.5 | 15.9 | 53.1 | 0.468 | > 56.5 | 20.5 | 54.3 | 0.329 | 50.5 | 13.8 | > 81.7 | 18.9 | > 100 | 17.4 | 84.3
O=C1CCc2c(sc3[nH]c(=S)n(Cc4ccccc4)c(=O)c23)C1 | 3.73 | > 100 | 3.58 | > 100 | 3.38 | > 100 | 5.11 | > 100 | 1.76 | > 100 | 4.53 | > 100 | 3.26 | 12.4 | 3.67 | > 100 | 3.19 | > 100 | 0.616 | > 100
Cc1cc(C)nc(SC2=C(Nc3cccc(Cl)c3C)C(=O)N(Cc3ccccc3)C2=O)n1 | > 160 | > 160 | > 160 | > 160 | > 160 | > 160 | > 160 | > 160 | > 160 | > 160 | > 160 | > 160 | > 160 | > 160 | > 160 | > 160 | > 160 | > 160 | > 160 | > 160
C/C(Cc1ccc(Cl)cc1)=C(/c1ccc(Cl)cc1)c1ccc(OCCN(C)C)cc1 | 5.12 | 9.56 | 4.75 | 9.22 | 3.03 | 8.74 | 3.73 | 8.56 | 0.981 | 5.83 | 3.68 | 8.63 | 1.7 | 6.31 | 4.79 | 9.3 | 5.75 | 13.7 | 4.34 | 9.21
Cc1nc(N)sc1C(=O)Nc1cc(C(=O)NCCCN(C)C)n(C)c1 | > 100 | > 100 | > 100 | > 100 | > 100 | > 100 | > 100 | > 100 | > 100 | > 100 | > 100 | > 100 | > 100 | > 100 | > 100 | > 100 | > 100 | > 100 | > 100 | > 100
C#CCOc1cccc(Nc2ncnc3ccc(NC(=O)CCl)cc23)c1 | 0.253 | 7.73 | 3.5 | 23.6 | 0.0493 | 5.25 | 0.164 | 2.77 | 0.117 | > 100 | 3.46 | 8.63 | 0.428 | 14.4 | 3.04 | 19.4 | 0.353 | > 65 | 0.581 | 12.4
O=C(c1ccccc1)c1nc2ccc(C(F)(F)F)cc2[n+]([O-])c1C(F)(F)F | 39.3 | > 100 | 21.1 | > 100 | 31.3 | > 100 | 16.4 | 52.2 | 18.2 | > 100 | 47.6 | > 100 | 36 | > 100 | 34.6 | > 100 | 38.7 | > 100 | 24.5 | > 100
O=C1c2c(O)cc(O)cc2OC(c2ccc(O)cc2O)C1O (configuration not stated) | > 100 | > 100 | – | > 100 | > 100 | > 100 | > 100 | > 100 | > 100 | > 100 | > 100 | > 100 | – | > 100 | > 100 | > 100 | > 100 | > 100 | – | > 100
CCOC(=O)c1cc2c(n1Cc1ccccc1)-c1oncc1CC2 | 5.84 | 89 | 5.65 | 49.5 | 3.45 | 13.7 | 4.98 | 60.1 | 2.48 | > 100 | 6.28 | 37 | > 100 | > 100 | 16.2 | > 100 | 7.19 | 66.9 | 9.68 | 94.1
